According to patent publication US12059400B2, “Medical compound” (VERA SALUS RICERCA S.R.L., priority 2017, dated 2024):
pIC50: −log10 of the molar value. Entries after “also recorded” stand apart in the source; their conditions may differ.

How the values were obtained:
[1] = system: human colon carcinoma cells (HCT116); assay: Cell proliferation, crystal violet method; format: cell-based; conditions: for HCT116 cell growth vs vehicle control: 100 μM, FIG. 3a, 3b, 13a, 13b; for pIC50: crystal violet, spectrophotometer, read-out: IC50 anti-proliferative effect, CRC (HCT116)
Procedure: (§1) The compound according to the invention, and in particular the synthetic quercetin derivatives described and illustrated herein were investigated in vitro by using human tumour cells and assessing their impact on the tumour proliferative capacity, with regard to the tumours described above. In particular, the following human tumour cell lines were assessed experimentally: 1) HCT116, colon adenocarcinoma cells; 2) H1299, lung adenocarcinoma cells; 3) A375, melanoma cells, and 4) A431, squamous skin cell carcinoma; 5) 786-0, renal carcinoma cells; 6) PC3, prostate carcinoma cells; 7) BT549, mammary carcinoma cells; 8) CAL27, tongue carcinoma cells (belonging to the head-and-neck carcinomas); 9) HepG2, hepatocellular carcinoma cells; 10) PANC-1, pancreas carcinoma cells; 11) T24, bladder carcinoma cells; 12) OVCAR-3, ovarian carcinoma cells. In addition, a normal human cell line, WS1 (skin fibroblasts) was also treated with the novel synthetic compounds.
(§2) Cell proliferation was quantified by the crystal violet method with a spectrophotometer. In short, after acquiring serial images (0, 24 and 48 hrs) with the EVOS XL Cell Imaging System microscope (Thermo Fisher Scientific), the cells imaged at 48 hrs were fixed with paraformaldehyde (4%) and stained with Crystal Violet (1%). Then, the specific absorbance (λ=590 nm) at 48 hrs was measured with a spectrophotometer (Infinite®200 PRO, Tecan). Data analysis was carried out by using ad-hoc Excel files for graphical representation and statistical processing (t-test). Moreover, the results obtained with Crystal Violet were confirmed by using another cell proliferation assessment method based on the real time cellular analyzer XCELLigence RTCA DP (ACEA Biosciences, Inc.). This tool allows cell growth to be monitored from electrical impedance-derived quantitative values (the so-called Cell Index) measured by tiny electrodes located at the base of the culture wells. Proliferation is monitored for several days (5-7) by setting a Cell Index per minute measure on the instrument. The data are analysed by processing various parameters calculated by the dedicated software, such as the cell duplication time, the slope and the Max Cell Index.
(§3) Cell proliferation was quantitated spectrophotometrically by the crystal violet method.

[2] = system: human hepatocellular carcinoma cells (HepG2); assay: Cell proliferation, crystal violet method; format: cell-based; conditions: for HepG2 tumour growth vs vehicle control: 80 μM, FIG. 8a, 8b; for pIC50: crystal violet, spectrophotometer, read-out: IC50 anti-proliferative effect, HCC - HepG2
Procedure: as §1, §2, §3

[3] = system: human mammary carcinoma cells (BT549); assay: Cell proliferation, crystal violet method; format: cell-based; conditions: for BT549 cell growth vs vehicle control: 80 μM, FIG. 6a, 6b; for pIC50: crystal violet, spectrophotometer, read-out: IC50 anti-proliferative effect, BRC - (BT549)
Procedure: as §1, §2, §3

[4] = system: human melanoma cells (A375); assay: Cell proliferation, crystal violet method; format: cell-based; conditions: for pIC50: crystal violet, spectrophotometer, read-out: IC50 anti-proliferative effect, Melanoma (A375)
Procedure: as §1, §2, §3

[5] = system: human tongue carcinoma cells (Cal27); assay: Cell proliferation, crystal violet method; format: cell-based; conditions: for Cal27 tumour growth vs vehicle control: 80 μM, FIG. 7a, 7b; for pIC50: crystal violet, spectrophotometer, read-out: IC50 anti-proliferative effect, HNC - (Cal27)
Procedure: as §1, §2, §3

[6] = system: human bladder carcinoma cells (T24); assay: Cell proliferation, crystal violet method; format: cell-based; conditions: for T24 cell growth vs vehicle control: 80 μM, FIG. 10a, 10b; for pIC50: crystal violet, spectrophotometer, read-out: IC50 anti-proliferative effect, BC (T24)
Procedure: as §2, with “The compound according to the invention, and in particular the synthetic quercetin derivatives described and illustrated herein were investigated in vitro by using human tumour cells and assessing their impact on the tumour proliferative capacity, with regard to the tumours described above. In particular, the following human tumour cell lines were assessed experimentally: 1) HCT116, colon adenocarcinoma cells; 2) H1299, lung adenocarcinoma cells; 3) A375, melanoma cells, and 4) A431, squamous skin cell carcinoma; 5) 786-0, renal carcinoma cells; 6) PC3, prostate carcinoma cells; 7) BT549, mammary carcinoma cells; 8) CAL27, tongue carcinoma cells (belonging to the head-and-neck carcinomas); 9) HepG2, hepatocellular carcinoma cells; 10) PANC-1, pancreas carcinoma cells; 11) T24, bladder carcinoma cells; 12) OVCAR-3, ovarian carcinoma cells. In addition, a normal human cell line, WS1 (skin fibroblasts) was also treated with the novel synthetic compounds. Cell proliferation” for “Cell proliferation”, “Cell Index. […] Cell proliferation was quantitated spectrophotometrically by the crystal violet method.” for “Cell Index.”

[7] = system: human pancreatic carcinoma cells (PANC-1); assay: Cell proliferation, crystal violet method; format: cell-based; conditions: for PANC-1 cell growth vs vehicle control: 80 μM, FIG. 9a, 9b; for pIC50: crystal violet, spectrophotometer, read-out: IC50 anti-proliferative effect, PCC (PANC-1)
Procedure: as §2, with “The compound according to the invention, and in particular the synthetic quercetin derivatives described and illustrated herein were investigated in vitro by using human tumour cells and assessing their impact on the tumour proliferative capacity, with regard to the tumours described above. In particular, the following human tumour cell lines were assessed experimentally: 1) HCT116, colon adenocarcinoma cells; 2) H1299, lung adenocarcinoma cells; 3) A375, melanoma cells, and 4) A431, squamous skin cell carcinoma; 5) 786-0, renal carcinoma cells; 6) PC3, prostate carcinoma cells; 7) BT549, mammary carcinoma cells; 8) CAL27, tongue carcinoma cells (belonging to the head-and-neck carcinomas); 9) HepG2, hepatocellular carcinoma cells; 10) PANC-1, pancreas carcinoma cells; 11) T24, bladder carcinoma cells; 12) OVCAR-3, ovarian carcinoma cells. In addition, a normal human cell line, WS1 (skin fibroblasts) was also treated with the novel synthetic compounds. Cell proliferation” for “Cell proliferation”, “Cell Index. […] Cell proliferation was quantitated spectrophotometrically by the crystal violet method.” for “Cell Index.”

[8] = system: human renal carcinoma cells (786-0); assay: Cell proliferation, crystal violet method; format: cell-based; conditions: for 786-0 cell growth vs vehicle control: 80 μM, FIG. 4a, 4b; for pIC50: crystal violet, spectrophotometer, read-out: IC50 anti-proliferative effect, RCC - (786-O)
Procedure: as §2, with “The compound according to the invention, and in particular the synthetic quercetin derivatives described and illustrated herein were investigated in vitro by using human tumour cells and assessing their impact on the tumour proliferative capacity, with regard to the tumours described above. In particular, the following human tumour cell lines were assessed experimentally: 1) HCT116, colon adenocarcinoma cells; 2) H1299, lung adenocarcinoma cells; 3) A375, melanoma cells, and 4) A431, squamous skin cell carcinoma; 5) 786-0, renal carcinoma cells; 6) PC3, prostate carcinoma cells; 7) BT549, mammary carcinoma cells; 8) CAL27, tongue carcinoma cells (belonging to the head-and-neck carcinomas); 9) HepG2, hepatocellular carcinoma cells; 10) PANC-1, pancreas carcinoma cells; 11) T24, bladder carcinoma cells; 12) OVCAR-3, ovarian carcinoma cells. In addition, a normal human cell line, WS1 (skin fibroblasts) was also treated with the novel synthetic compounds. Cell proliferation” for “Cell proliferation”, “Cell Index. […] Cell proliferation was quantitated spectrophotometrically by the crystal violet method.” for “Cell Index.”

[9] = system: human prostate carcinoma cells (PC3); assay: Cell proliferation, crystal violet method; format: cell-based; conditions: for PC3 cell growth vs vehicle control: 80 μM, FIG. 5a, 5b; for pIC50: crystal violet, spectrophotometer, read-out: IC50 anti-proliferative effect, PC - (PC3)
Procedure: as §2, with “The compound according to the invention, and in particular the synthetic quercetin derivatives described and illustrated herein were investigated in vitro by using human tumour cells and assessing their impact on the tumour proliferative capacity, with regard to the tumours described above. In particular, the following human tumour cell lines were assessed experimentally: 1) HCT116, colon adenocarcinoma cells; 2) H1299, lung adenocarcinoma cells; 3) A375, melanoma cells, and 4) A431, squamous skin cell carcinoma; 5) 786-0, renal carcinoma cells; 6) PC3, prostate carcinoma cells; 7) BT549, mammary carcinoma cells; 8) CAL27, tongue carcinoma cells (belonging to the head-and-neck carcinomas); 9) HepG2, hepatocellular carcinoma cells; 10) PANC-1, pancreas carcinoma cells; 11) T24, bladder carcinoma cells; 12) OVCAR-3, ovarian carcinoma cells. In addition, a normal human cell line, WS1 (skin fibroblasts) was also treated with the novel synthetic compounds. Cell proliferation” for “Cell proliferation”, “Cell Index. […] Cell proliferation was quantitated spectrophotometrically by the crystal violet method.” for “Cell Index.”

[10] = system: human colon carcinoma cells (HCT116); assay: Cell cycle progression, propidium iodide method, cytofluorimeter; format: cell-based; conditions: for halt of HCT116 tumour cells in S of the cell cycle: 24 hrs, at the respective anti-proliferative IC50s, FIG. 20
Procedure: (§4) Progression through the tumour cell cycle was assessed by the propidium iodide method and quantification of the cell DNA content with a cytofluorimeter. Briefly, after treatment (in duplicate) with the test compounds (24 hrs), the tumour cells were washed (with PBS), detached with trypsin-EDTA and pelleted by centrifugation (125 g for 6 min). The cells were then fixed in ethanol (70%) and stored in the freezer (−20° C.) for 1-3 days. After further washing (PBS) and treatment with RNAse (50 ug/ml), the cells were contacted (on ice in the dark; 30 min) with propidium iodide (50 μg/ml). FL2 and FL3 cytofluorimeter readings analysed approximately 50,000 cells (1 μl/second) per sample. Statistical analysis and graphical representation were performed by using t-tests and preset Excel property files.

[11] = system: human melanoma cells (A375); assay: as above; format: cell-based; conditions: for halt of A375 tumour cells in S and/or G2 of the cell cycle: 24 hrs, at the respective anti-proliferative IC50s, FIG. 19
Procedure: as §4

[12] = system: H1299, lung adenocarcinoma cells; assay: Cell proliferation, crystal violet method; format: cell-based, human; conditions: spectrophotometer, read-out: IC50 anti-proliferative effect, LC (H1299)
Procedure: as §1, §2, §3

pIC50 [1] | pIC50 [2] | pIC50 [3] | pIC50 [4] | pIC50 [5] | pIC50 [6] | pIC50 [7] | pIC50 [8] | pIC50 [9] | pIC50 [12] | Substance | HCT116 cell growth vs vehicle control [1] | HepG2 tumour growth vs vehicle control [2] | BT549 cell growth vs vehicle control [3] | Cal27 tumour growth vs vehicle control [5] | T24 cell growth vs vehicle control [6] | PANC-1 cell growth vs vehicle control [7] | 786-0 cell growth vs vehicle control [8] | PC3 cell growth vs vehicle control [9] | halt of HCT116 tumour cells in S of the cell cycle [10] | halt of A375 tumour cells in S and/or G2 of the cell cycle [11] | further results
4.22 | 4.30 | 3.92 | 4.32 | 4.44 | 4.35 | 3.81 | 4.18 | 4.34 | 4.46 | 2-(3,4-Dihydroxyphenyl)-3-hexadecyloxy-5,7-dihydroxy-4H-chromen-4-one [Compound 3] | significantly inhibit | significantly inhibit; also recorded: superior to that of quercetin | significantly inhibit | significantly inhibit | significantly inhibit | significantly inhibit | significantly inhibit | significantly inhibit | significantly halt | exception | –
3.78 | 3.84 | 3.72 | 4.17 | 4.81 | < 3.00 | < 3.00 | 3.83 | 4.10 | 4.00 | 2-(3,4-Dihydroxyphenyl)-3-ethoxy-5,7-dihydroxy-4H-chromen-4-one [Compound 1] | – | significantly inhibit | significantly inhibit | significantly inhibit | – | – | significantly inhibit | significantly inhibit | significantly halt | significantly halt | effect on the HCT116 cell cycle in presence of ROS scavenger NAC ([10]; Compound at its anti-proliferative IC50 + N-Acetyl Cysteine 10 mM, FIG. 21 left): partly mediated by ROS; effect on the A375 cell cycle in presence of ROS scavenger NAC ([11]; Compound at its anti-proliferative IC50 + N-Acetyl Cysteine 10 mM, FIG. 21 right): partly mediated by ROS
4.37 | 3.58 | 3.81 | 4.72 | 4.20 | 4.18 | 4.02 | 4.14 | 3.51 | 4.30 | 2-(3,4-Dihydroxyphenyl)-3-hexyloxy-5,7-dihydroxy-4H-chromen-4-one [Compound 2] | significantly inhibit | significantly inhibit | significantly inhibit | significantly inhibit | significantly inhibit | significantly inhibit | significantly inhibit | – | – | significantly halt | growth of melanoma cells (A375) vs vehicle control ([4]; 60 μM, FIG. 1a, 1b): significantly inhibit
